The target in experiment [1] is PI 3-kinase gamma (Homo sapiens, UniProt P48736). As to the kind of experiment: TR-FRET Adapta assay, assay E. Particulars: read-out: Assay E PI3Kγ IC50. Format: biochemical. (TR-FRET usually uses a lanthanide donor and a delayed reading to cut background.)
The target of experiment [2] is PI 4-kinase beta (Homo sapiens, UniProt Q9UBF8). As to the kind of experiment: Kinase Glo Luminescent Kinase Assay (Kglo), assay D. It is filed as biochemical. Particulars: read-out: Assay D PI4Kβ IC50. (In general: Kinase-Glo reads ATP consumption through a luciferase reaction.)
Experiment [3] concerns the target T1, PI 3-kinase delta (Homo sapiens, UniProt O00329). As to the kind of experiment: TR-FRET Adapta assay, assay F. Particulars: read-out: Assay F PI3Kδ IC50.
Experiment [4] addresses T2, PI 3-kinase beta (Homo sapiens, UniProt P42338). As to the kind of experiment: Cellular assay I1, p-Akt (S473) in Rat-1 cells, Surefire format. Format: cell-based. Particulars: non-asterisked data: version I1 (Surefire format), Rat-1 cells; read-out: Assay I PI3Kβ IC50.
Target sequence in this assay (P42338 whole entry): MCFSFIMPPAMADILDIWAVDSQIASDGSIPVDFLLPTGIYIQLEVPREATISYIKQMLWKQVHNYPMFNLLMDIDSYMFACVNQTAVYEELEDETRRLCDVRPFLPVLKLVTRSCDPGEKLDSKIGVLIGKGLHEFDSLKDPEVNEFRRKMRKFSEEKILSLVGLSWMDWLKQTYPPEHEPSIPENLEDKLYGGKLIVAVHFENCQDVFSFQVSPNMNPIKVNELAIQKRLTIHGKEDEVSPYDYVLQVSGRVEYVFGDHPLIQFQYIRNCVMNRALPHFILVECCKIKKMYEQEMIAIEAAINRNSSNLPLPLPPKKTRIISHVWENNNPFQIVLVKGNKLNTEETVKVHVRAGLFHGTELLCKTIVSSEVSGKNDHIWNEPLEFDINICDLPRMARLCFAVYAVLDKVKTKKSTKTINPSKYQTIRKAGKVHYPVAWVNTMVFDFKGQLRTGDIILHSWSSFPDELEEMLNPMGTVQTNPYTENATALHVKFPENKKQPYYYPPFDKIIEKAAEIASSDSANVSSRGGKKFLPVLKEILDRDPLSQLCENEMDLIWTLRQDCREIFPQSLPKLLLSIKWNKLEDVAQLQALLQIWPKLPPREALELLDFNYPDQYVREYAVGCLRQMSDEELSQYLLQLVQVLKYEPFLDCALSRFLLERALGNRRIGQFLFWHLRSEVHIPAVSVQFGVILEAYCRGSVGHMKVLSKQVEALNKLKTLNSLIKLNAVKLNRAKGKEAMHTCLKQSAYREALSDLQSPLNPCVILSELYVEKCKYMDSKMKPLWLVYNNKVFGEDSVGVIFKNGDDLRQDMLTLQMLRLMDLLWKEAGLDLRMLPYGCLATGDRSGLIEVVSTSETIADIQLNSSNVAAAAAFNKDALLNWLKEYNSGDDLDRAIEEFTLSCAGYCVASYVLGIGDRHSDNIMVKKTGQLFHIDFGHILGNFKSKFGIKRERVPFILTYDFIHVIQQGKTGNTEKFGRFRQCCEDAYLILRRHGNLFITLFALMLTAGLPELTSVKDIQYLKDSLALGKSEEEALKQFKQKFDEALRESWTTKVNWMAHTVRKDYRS
Target sequence in this assay (Q63787 whole entry partner): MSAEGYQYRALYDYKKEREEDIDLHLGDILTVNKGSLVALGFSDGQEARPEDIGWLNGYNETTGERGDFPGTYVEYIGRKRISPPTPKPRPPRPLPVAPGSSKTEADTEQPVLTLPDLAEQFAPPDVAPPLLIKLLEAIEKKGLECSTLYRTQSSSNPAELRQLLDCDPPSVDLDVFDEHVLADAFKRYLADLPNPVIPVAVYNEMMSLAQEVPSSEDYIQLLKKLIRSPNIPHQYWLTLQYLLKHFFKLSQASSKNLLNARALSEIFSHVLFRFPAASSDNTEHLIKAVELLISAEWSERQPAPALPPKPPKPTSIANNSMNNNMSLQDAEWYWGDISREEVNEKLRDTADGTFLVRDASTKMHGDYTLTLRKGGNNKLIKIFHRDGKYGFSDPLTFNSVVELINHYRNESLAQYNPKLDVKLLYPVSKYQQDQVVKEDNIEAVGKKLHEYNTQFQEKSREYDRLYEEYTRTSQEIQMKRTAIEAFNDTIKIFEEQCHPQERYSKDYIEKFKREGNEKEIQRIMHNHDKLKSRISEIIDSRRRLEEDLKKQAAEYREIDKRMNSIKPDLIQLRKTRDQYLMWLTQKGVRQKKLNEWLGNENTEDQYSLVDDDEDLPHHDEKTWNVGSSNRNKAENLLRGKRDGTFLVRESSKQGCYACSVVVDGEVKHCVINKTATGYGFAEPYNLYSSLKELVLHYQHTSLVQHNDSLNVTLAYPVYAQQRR
For experiment [5], the target named is T3, PI 3-kinase alpha (Homo sapiens, UniProt P42336). As to the kind of experiment: Cellular assay H1, p-Akt (S473) in Rat-1 cells, Surefire format. It is filed as cell-based. Conditions: non-asterisked data: version H1 (Surefire format), Rat-1 cells; read-out: Assay H PI3Kα IC50.
Experiment [6] has as its target T1, PI 3-kinase delta. As to the kind of experiment: Cellular assay J1, p-Akt (S473) in Rat-1 cells, Surefire format. It is filed as cell-based. Particulars: non-asterisked data: version J1 (Surefire format), Rat-1 cells; read-out: Assay J PI3Kδ IC50.
Target sequence in this assay (O00329 whole entry): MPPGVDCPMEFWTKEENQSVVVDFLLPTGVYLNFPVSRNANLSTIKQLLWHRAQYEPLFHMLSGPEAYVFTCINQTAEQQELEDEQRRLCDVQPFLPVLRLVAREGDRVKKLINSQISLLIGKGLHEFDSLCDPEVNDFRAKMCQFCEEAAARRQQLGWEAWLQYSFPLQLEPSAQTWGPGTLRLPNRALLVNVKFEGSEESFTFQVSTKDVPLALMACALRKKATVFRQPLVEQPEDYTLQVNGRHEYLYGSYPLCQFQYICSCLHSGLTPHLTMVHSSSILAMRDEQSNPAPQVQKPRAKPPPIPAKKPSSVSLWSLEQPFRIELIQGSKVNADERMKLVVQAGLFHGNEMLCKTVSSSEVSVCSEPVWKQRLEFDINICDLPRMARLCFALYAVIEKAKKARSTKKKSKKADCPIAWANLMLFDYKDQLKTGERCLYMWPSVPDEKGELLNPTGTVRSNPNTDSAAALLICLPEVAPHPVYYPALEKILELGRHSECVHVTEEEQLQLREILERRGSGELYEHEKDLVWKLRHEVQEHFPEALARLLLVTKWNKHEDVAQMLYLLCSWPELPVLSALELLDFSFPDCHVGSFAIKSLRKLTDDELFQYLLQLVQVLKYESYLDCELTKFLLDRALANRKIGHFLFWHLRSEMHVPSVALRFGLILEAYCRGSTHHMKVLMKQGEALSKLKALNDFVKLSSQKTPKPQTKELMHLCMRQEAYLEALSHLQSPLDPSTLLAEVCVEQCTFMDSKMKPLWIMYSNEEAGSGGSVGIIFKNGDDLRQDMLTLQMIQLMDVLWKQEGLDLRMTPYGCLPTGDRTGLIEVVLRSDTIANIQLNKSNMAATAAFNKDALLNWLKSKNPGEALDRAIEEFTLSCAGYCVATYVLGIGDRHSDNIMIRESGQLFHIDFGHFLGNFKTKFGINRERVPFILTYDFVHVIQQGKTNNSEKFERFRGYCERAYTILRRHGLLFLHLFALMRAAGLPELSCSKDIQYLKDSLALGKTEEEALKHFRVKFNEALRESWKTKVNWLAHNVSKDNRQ
Target sequence in this assay (Q63787 whole entry partner): as the sequence (Q63787 whole entry partner) above
Excerpt: Cellular Assays for PI 3-Kinase Alpha (H1), Beta (I1) and Delta (J1): Surefire Format
AlphaScreen (Amplified Luminescent Proximity Homogeneous Assay, ALPHA, Perkin Elmer) is a non-radioactive bead-based proximity assay technology to study biomolecular interactions in a homogenous microtiter plate format. The brand name SureFire denotes AlphaScreen assays that are adapted to quantify the phosphorylation of endogenous cellular proteins in cell lysates, by using matched antibody pairs, which consist of an anti-phospho-kinase and an anti-kinase antibody. The assay allows characterization of kinase signaling in cells as well as measurement of kinase inhibitor effects.
Using Rat-1 cells stably expressing myr-HA-tagged versions of the human PI3Kdelta, PI3Kalpha, or PI3Kbeta p110 catalytic subunit isoforms, the assay was developed as a two-plate protocol in a 384-well format.
For compound testing, the cells were seeded at a density of 4000 (Rat-1_PI3Kdelta), 7500 (Rat-1_PI3Kalpha), or 6200 (Rat-1_PI3Kbeta) cells in 20 μl complete growth medium into cell culture treated 384-well plates and were grown at 37° C./5% CO2/90% humidity for 24 h. Shortly before compound transfer, the complete medium was removed, 30 μl assay buffer (DMEM high glucose, 1×MEM NEAA, 10 mM HEPES, 2 mM L-glutamine, 0.1% (w/v) BSA) was added and 10 μl of the compound predilutions were transferred to the cells.
The target of experiment [7] is T2, PI 3-kinase beta. As to the kind of experiment: Kinase Glo Luminescent Kinase Assay (Kglo), assay B. It is filed as biochemical. Particulars: read-out: Assay B PI3Kβ IC50.
Target sequence in this assay (P42338 whole entry): as the sequence (P42338 whole entry) above
Target sequence in this assay (P27986 461-568 partner): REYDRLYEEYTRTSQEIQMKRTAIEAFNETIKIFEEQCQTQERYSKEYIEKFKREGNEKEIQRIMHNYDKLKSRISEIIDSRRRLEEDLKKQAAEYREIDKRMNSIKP
Experiment [8] has as its target Vps34 (Homo sapiens, UniProt Q8NEB9). As to the kind of experiment: Kinase Glo Luminescent Kinase Assay (Kglo), assay C. It is filed as biochemical. Conditions: read-out: Assay C VPS34 IC50.
The target in experiment [9] is mTOR (Homo sapiens, UniProt P42345). As to the kind of experiment: Lanthascreen kinase binding assay, assay G. Particulars: read-out: Assay G mTOR IC50.
Description: Lanthascreen™ Kinase Binding Assay for mTOR (G)
Binding of an inhibitor to the kinase competes for binding with the tracer, resulting in a loss of FRET.
50 nL of compound dilutions were dispensed onto white 384-well small volume polystyrene plate.
Experiment [10] addresses T3, PI 3-kinase alpha. As to the kind of experiment: Kinase Glo Luminescent Kinase Assay (Kglo), assay A. Format: biochemical. Conditions: read-out: Assay A PI3Kα IC50.

SMILES strings stand for the structures.

Chain of PI 3-kinase gamma (P48736 whole entry): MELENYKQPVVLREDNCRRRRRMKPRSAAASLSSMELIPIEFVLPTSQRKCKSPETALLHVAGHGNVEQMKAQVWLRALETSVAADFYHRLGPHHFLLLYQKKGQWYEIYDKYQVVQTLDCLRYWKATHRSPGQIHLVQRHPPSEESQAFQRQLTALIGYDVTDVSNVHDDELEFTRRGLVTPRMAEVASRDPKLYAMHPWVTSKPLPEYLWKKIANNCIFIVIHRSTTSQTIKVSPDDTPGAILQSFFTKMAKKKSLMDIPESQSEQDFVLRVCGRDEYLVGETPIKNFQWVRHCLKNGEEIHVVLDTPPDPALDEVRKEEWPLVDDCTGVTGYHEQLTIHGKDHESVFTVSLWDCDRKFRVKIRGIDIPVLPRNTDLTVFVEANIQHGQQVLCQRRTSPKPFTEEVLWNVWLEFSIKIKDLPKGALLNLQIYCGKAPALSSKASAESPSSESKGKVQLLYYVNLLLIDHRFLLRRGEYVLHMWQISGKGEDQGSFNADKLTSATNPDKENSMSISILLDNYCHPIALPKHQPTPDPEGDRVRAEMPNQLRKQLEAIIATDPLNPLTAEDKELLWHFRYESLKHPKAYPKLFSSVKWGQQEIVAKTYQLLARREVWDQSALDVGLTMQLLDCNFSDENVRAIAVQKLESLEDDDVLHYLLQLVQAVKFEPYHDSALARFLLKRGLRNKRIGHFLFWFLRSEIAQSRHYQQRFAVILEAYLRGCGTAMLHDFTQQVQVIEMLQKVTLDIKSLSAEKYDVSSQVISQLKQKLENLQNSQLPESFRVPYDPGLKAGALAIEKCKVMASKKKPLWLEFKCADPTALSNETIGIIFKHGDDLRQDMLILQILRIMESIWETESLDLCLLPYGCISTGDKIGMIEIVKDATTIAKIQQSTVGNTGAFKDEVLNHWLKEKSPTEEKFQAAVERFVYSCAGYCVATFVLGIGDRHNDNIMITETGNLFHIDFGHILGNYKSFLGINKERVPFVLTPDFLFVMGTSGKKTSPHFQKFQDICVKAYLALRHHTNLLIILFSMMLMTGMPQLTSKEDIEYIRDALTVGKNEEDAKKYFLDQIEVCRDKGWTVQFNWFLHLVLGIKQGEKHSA
Chain of Vps34 (Q8NEB9 whole entry, species assumed): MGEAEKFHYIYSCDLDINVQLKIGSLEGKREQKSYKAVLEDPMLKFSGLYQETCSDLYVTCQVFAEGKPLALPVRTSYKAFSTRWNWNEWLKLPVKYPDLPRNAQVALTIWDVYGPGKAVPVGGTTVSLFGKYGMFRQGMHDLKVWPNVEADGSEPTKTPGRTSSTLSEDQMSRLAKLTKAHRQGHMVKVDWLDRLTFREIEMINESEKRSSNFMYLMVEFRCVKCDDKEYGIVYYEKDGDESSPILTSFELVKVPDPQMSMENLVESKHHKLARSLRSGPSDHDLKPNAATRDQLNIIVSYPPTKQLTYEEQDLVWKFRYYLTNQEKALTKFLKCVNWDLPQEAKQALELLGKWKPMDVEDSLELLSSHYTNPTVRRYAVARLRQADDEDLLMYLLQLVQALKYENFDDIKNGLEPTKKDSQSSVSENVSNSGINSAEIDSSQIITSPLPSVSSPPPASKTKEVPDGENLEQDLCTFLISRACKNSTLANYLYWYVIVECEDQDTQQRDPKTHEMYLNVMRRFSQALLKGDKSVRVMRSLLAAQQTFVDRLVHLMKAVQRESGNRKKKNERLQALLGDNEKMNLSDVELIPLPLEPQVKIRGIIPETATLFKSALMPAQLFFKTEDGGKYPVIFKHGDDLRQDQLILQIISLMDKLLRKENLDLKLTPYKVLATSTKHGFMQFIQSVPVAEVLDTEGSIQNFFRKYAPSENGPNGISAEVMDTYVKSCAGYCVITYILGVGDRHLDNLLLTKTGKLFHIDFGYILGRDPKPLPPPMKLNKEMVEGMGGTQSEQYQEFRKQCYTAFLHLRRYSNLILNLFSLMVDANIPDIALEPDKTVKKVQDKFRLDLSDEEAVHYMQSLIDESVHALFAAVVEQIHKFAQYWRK

For the compound `Cc1ccc(S(=O)(=O)NCCC(C)(C)O)cc1-c1cnc(N)c(-c2cccnc2F)n1` [Example 119.1], the IC50 was found to be 1 µM in experiment [1]; 6.2 µM in experiment [2]; 2.3 µM in experiment [3]; 3.81 µM in [4]; 2.69 µM in experiment [5]; 2.82 µM in experiment [6]. The IC50 in experiment [7] was over 9.1 µM; in [8], over 9.1 µM; in experiment [9], 4.91 µM; in experiment [10], 0.61 µM.

Turning to `COc1ncccc1-c1nc(-c2cc(S(=O)(=O)NCCC(C)(C)O)ccc2C)cnc1N` [Example 119.4], the IC50 in [1] is 3.12 µM; in [2], over 9.1 µM; in experiment [3] it was 5.7 µM; in experiment [4] it was over 10 µM; in experiment [5] it was over 10 µM; in experiment [6], over 10 µM. In addition, the IC50 was over 9.1 µM in [7], over 9.1 µM in experiment [8], over 9.1 µM in experiment [9] and 2.83 µM in experiment [10].

Take `Cc1cncc(-c2nc(-c3cc(S(=O)(=O)NCCC(C)(C)O)ccc3C)cnc2N)c1` [Example 119.7]: the IC50 in experiment [1] came out at 0.278 µM; in experiment [2] it was 7.96 µM; in [3], 0.72 µM; in [4] it was 4.05 µM; in experiment [5], 6.97 µM; in experiment [6], 5.93 µM. The IC50 in experiment [7] was over 9.1 µM; in experiment [8], over 9.1 µM; in experiment [9], 4.32 µM; in experiment [10], 2.98 µM.

For `Cc1ccc(S(=O)(=O)NCCC(C)(C)O)cc1-c1cnc(N)c(-c2cc(Cl)cnc2F)n1` [Example 119.8], the IC50 in [1] is 0.167 µM; in experiment [2], 4.53 µM; in [3] it was 0.2 µM; in [4], 4.64 µM; in experiment [5] it was 3.85 µM; in experiment [6] it was 5.2 µM. Besides, the IC50 in [7] was over 9.1 µM; in experiment [8], over 9.1 µM; in [9], 5.94 µM; in [10], 1.05 µM.

For `Cc1ccc(S(=O)(=O)NCCC(C)(C)O)cc1-c1cnc(N)c(-c2cnc(Cl)cc2C)n1` [Example 119.9], the IC50 was 0.178 µM in experiment [1]; 0.69 µM in experiment [2]; 0.9 µM in [3]; 3.07 µM in experiment [4]; 1.92 µM in experiment [5]; 4.23 µM in [6]. The IC50 in experiment [7] is 7.78 µM; in [8], over 9.1 µM; in experiment [9], over 9.1 µM; in [10], 0.33 µM.

As to `Cc1ccc(S(=O)(=O)NCCC(C)(C)O)cc1-c1cnc(N)c(-c2ccncc2F)n1` [Example 119.11], the IC50 in experiment [1] is 0.303 µM; in experiment [2] it was over 9.1 µM; in experiment [3], 1.1 µM; in [4], 3.56 µM; in experiment [5], 2.54 µM; in experiment [6] it was 6.94 µM. Besides, the IC50 in experiment [7] is over 9.1 µM; in [8], over 9.1 µM; in [9] it was over 9.1 µM; in experiment [10], 0.45 µM.

Consider `COc1ccc(-c2nc(-c3cc(S(=O)(=O)NCCC(C)(C)O)ccc3C)cnc2N)c(C)n1` [Example 119.14], for which the IC50 in experiment [1] was 0.667 µM; in experiment [2], 7.35 µM; in experiment [3], 1.44 µM; in [4] it was 4.39 µM; in experiment [5] it was 3.14 µM; in experiment [6], 4.96 µM. Further, the IC50 in [7] was over 9.1 µM; in experiment [8], over 9.1 µM; in [9], 8.53 µM; in experiment [10] it was 1.16 µM.

For the compound `Cc1ccc(S(=O)(=O)NCCC(C)(C)O)cc1-c1cnc(N)c(-c2ccoc2)n1` [Example 119.15], the IC50 in experiment [1] was found to be 0.162 µM; in experiment [2], 4.86 µM; in [3] it was 0.96 µM; in experiment [4], 7.33 µM; in [5], 1.48 µM; in [6], 1.65 µM. In addition, the IC50 is 8.81 µM in [7], over 9.1 µM in [8], over 9.1 µM in experiment [9] and 1.66 µM in experiment [10].

Consider `Cc1ccc(S(=O)(=O)NCCC(C)(C)O)cc1-c1cnc(N)c(-c2ccc(N3CCCC3)nc2)n1` [Example 119.17], for which the IC50 in experiment [1] stood at 0.362 µM; in experiment [2], 1.56 µM; in experiment [3], 2.54 µM; in experiment [4] it was 6.17 µM; in [5] it was 2.81 µM; in experiment [6], 7.16 µM. For the same compound, the IC50 was over 9.1 µM in [7], over 9.1 µM in [8], over 9.1 µM in experiment [9] and 1.45 µM in experiment [10].

In the case of `Cc1ccc(S(=O)(=O)NCCC(C)(C)O)cc1-c1cnc(N)c(-c2ccc(F)nc2)n1` [Example 119.18], the IC50 stood at 0.248 µM in [1]; 8.19 µM in [2]; 0.58 µM in experiment [3]; 4.48 µM in experiment [4]; 1.32 µM in experiment [5]; 1.3 µM in experiment [6]. Besides, the IC50 in experiment [7] is 8.04 µM; in [8] it was over 9.1 µM; in [9], over 9.1 µM; in experiment [10] it was 0.49 µM.

As for `Cc1ccc(S(=O)(=O)NCCC(C)(C)O)cc1-c1cnc(N)c(-c2cnn(C)c2C)n1` [Example 119.19], the half-inhibitory concentration (IC50) is 3.47 µM in [1]; over 9.1 µM in [2]; over 9.1 µM in experiment [3]; over 10 µM in [4]; over 10 µM in experiment [5]; over 10 µM in [6]. In addition, the IC50 in experiment [7], in experiment [8], in [9] and in experiment [10] was over 9.1 µM in each case.

With `Cc1ccc(S(=O)(=O)NCCC(C)(C)O)cc1-c1cnc(N)c(-c2ccc(N3CCOCC3)nc2)n1` [Example 119.21], the IC50 in experiment [1] was 0.401 µM; in experiment [2] it was 3.83 µM; in [3] it was 2.18 µM; in experiment [4] it was over 10 µM; in experiment [5], 5.16 µM; in [6] it was 7.48 µM. Moreover, the IC50 in experiment [7] was over 9.1 µM; in [8], over 9.1 µM; in experiment [9], over 9.1 µM; in experiment [10], 1.73 µM.

On to `Cc1ccc(S(=O)(=O)NCCC(C)(C)O)cc1-c1cnc(N)c(-c2c[nH]nc2C)n1` [Example 119.22], for which the IC50 was 0.157 µM in experiment [1]; 2.19 µM in experiment [2]; 0.53 µM in [3]; over 10 µM in experiment [4]; 4.41 µM in experiment [5]; over 10 µM in [6]. Besides, the IC50 in [7] was 1.93 µM; in [8], over 9.1 µM; in experiment [9], 2.34 µM; in experiment [10] it was 0.57 µM.

Turning to `Cc1ccc(S(=O)(=O)NCCC(C)(C)O)cc1-c1cnc(N)c(-c2ccc(N3CCCCC3)nc2)n1` [Example 119.23], the 50% inhibitory concentration (IC50) worked out at 0.525 µM in [1]; 0.94 µM in experiment [2]; 2.04 µM in experiment [3]; 8.49 µM in experiment [4]; 1.97 µM in experiment [5]; 3.53 µM in [6]. In addition, the IC50 was over 9.1 µM in experiment [7], over 9.1 µM in experiment [8], 7.6 µM in experiment [9] and 1.34 µM in experiment [10].

For `Cc1ccc(S(=O)(=O)NCCC(C)(C)O)cc1-c1cnc(N)c(-c2ccc(OC3CCOCC3)nc2)n1` [Example 119.24], the IC50 in experiment [1] amounted to 0.761 µM; in experiment [2], 3.4 µM; in experiment [3] it was 1.67 µM; in experiment [4], 9.22 µM; in experiment [5], 2.6 µM; in experiment [6] it was 3.17 µM. Moreover, the IC50 in experiment [7] was over 9.1 µM; in experiment [8], over 9.1 µM; in experiment [9] it was 9.02 µM; in experiment [10], 1.09 µM.

One may read the IC50 as the point on the concentration scale where inhibition reaches its midpoint.

The record behind these values is US10004732B2 (Novartis AG, priority 2014, dated 2018).
